Assay results taken from ChEMBL document CHEMBL4507281, “Data for DCP probe BI-4394” (2021).

How the values were obtained:
[1] = target: Serine/threonine-protein kinase TNNI3K (Homo sapiens) (UniProt Q59H18); conditions: Compound concentration 100.0 nM
[2] = target: Cyclin-dependent kinase 15 (Homo sapiens) (UniProt Q96Q40); conditions: Compound concentration 100.0 nM
[3] = target: Aurora kinase C (Homo sapiens) (UniProt Q9UQB9); conditions: Compound concentration 100.0 nM
[4] = system: Mast/stem cell growth factor receptor Kit (Homo sapiens), P10721 [V559D]; conditions: Compound concentration 100.0 nM
[5] = target: Ribosomal protein S6 kinase alpha-4 (Homo sapiens) (UniProt O75676); conditions: Compound concentration 100.0 nM
[6] = system: Tyrosine-protein kinase ABL1 (Homo sapiens), P00519 [Q252H]; conditions: Compound concentration 100.0 nM
[7] = target: Serine/threonine-protein kinase N1 (Homo sapiens) (UniProt Q16512); conditions: Compound concentration 100.0 nM
[8] = system: Fibroblast growth factor receptor 3 (Homo sapiens), P22607 [G697C]; conditions: Compound concentration 100.0 nM
[9] = target: Dual specificity mitogen-activated protein kinase kinase 6 (Homo sapiens) (UniProt P52564); conditions: Compound concentration 100.0 nM
[10] = target: Mitogen-activated protein kinase kinase kinase 2 (Homo sapiens) (UniProt Q9Y2U5); conditions: Compound concentration 100.0 nM
[11] = target: 1-phosphatidylinositol 3-phosphate 5-kinase (Homo sapiens) (UniProt Q9Y2I7); conditions: Compound concentration 100.0 nM
[12] = target: Mitogen-activated protein kinase 13 (Homo sapiens) (UniProt O15264); conditions: Compound concentration 100.0 nM
[13] = target: AP2-associated protein kinase 1 (Homo sapiens) (UniProt Q2M2I8); conditions: Compound concentration 100.0 nM
[14] = target: Serine/threonine-protein kinase SIK1 (Homo sapiens) (UniProt P57059); conditions: Compound concentration 100.0 nM
[15] = target: Calcium/calmodulin-dependent protein kinase type IV (Homo sapiens) (UniProt Q16566); conditions: Compound concentration 100.0 nM
[16] = target: Interleukin-1 receptor-associated kinase 3 (Homo sapiens) (UniProt Q9Y616); conditions: Compound concentration 100.0 nM
Chain of Interleukin-1 receptor-associated kinase 3 (Homo sapiens) (Q9Y616 whole entry): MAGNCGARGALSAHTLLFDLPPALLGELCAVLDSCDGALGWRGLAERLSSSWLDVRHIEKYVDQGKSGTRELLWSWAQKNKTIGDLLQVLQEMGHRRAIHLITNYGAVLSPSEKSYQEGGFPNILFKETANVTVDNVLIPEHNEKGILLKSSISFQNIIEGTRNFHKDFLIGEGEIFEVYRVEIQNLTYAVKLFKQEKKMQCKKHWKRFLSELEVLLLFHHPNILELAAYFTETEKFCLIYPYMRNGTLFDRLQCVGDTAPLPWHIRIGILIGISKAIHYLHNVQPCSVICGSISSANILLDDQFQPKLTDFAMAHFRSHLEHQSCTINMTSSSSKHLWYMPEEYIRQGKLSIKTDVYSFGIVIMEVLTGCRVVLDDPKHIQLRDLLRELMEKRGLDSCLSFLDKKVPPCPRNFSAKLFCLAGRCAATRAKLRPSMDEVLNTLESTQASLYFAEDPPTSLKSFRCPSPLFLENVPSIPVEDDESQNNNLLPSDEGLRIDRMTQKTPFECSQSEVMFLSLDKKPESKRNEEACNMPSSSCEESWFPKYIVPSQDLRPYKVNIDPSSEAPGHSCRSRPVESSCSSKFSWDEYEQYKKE

[17] = target: Serine/threonine-protein kinase LATS1 (Homo sapiens) (UniProt O95835); conditions: Compound concentration 100.0 nM
[18] = target: Dual specificity tyrosine-phosphorylation-regulated kinase 2 (Homo sapiens) (UniProt Q92630); conditions: Compound concentration 100.0 nM
[19] = target: Serine/threonine-protein kinase PAK 2 (Homo sapiens) (UniProt Q13177); conditions: Compound concentration 100.0 nM
[20] = target: Serine/threonine-protein kinase Nek9 (Homo sapiens) (UniProt Q8TD19); conditions: Compound concentration 100.0 nM
[21] = target: Dual specificity protein kinase CLK4 (Homo sapiens) (UniProt Q9HAZ1); conditions: Compound concentration 100.0 nM
Chain of Dual specificity protein kinase CLK4 (Homo sapiens) (Q9HAZ1 whole entry, looked up): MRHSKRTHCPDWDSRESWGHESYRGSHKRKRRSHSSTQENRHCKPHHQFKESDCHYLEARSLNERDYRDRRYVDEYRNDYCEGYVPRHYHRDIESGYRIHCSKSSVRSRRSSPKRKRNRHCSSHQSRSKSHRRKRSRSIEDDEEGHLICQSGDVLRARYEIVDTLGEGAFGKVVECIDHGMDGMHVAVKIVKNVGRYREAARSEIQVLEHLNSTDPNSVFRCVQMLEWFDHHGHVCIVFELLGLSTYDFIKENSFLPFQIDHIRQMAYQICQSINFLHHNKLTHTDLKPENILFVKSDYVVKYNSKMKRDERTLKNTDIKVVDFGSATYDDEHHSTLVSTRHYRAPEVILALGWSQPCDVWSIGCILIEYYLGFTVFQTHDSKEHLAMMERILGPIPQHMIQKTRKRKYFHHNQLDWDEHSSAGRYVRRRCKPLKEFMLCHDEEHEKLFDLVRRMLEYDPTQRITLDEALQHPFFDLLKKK

[22] = target: Leucine-rich repeat serine/threonine-protein kinase 2 (Homo sapiens) (UniProt Q5S007); conditions: Compound concentration 100.0 nM
Chain of Leucine-rich repeat serine/threonine-protein kinase 2 (Homo sapiens) (Q5S007 whole entry, the tested form may be a part): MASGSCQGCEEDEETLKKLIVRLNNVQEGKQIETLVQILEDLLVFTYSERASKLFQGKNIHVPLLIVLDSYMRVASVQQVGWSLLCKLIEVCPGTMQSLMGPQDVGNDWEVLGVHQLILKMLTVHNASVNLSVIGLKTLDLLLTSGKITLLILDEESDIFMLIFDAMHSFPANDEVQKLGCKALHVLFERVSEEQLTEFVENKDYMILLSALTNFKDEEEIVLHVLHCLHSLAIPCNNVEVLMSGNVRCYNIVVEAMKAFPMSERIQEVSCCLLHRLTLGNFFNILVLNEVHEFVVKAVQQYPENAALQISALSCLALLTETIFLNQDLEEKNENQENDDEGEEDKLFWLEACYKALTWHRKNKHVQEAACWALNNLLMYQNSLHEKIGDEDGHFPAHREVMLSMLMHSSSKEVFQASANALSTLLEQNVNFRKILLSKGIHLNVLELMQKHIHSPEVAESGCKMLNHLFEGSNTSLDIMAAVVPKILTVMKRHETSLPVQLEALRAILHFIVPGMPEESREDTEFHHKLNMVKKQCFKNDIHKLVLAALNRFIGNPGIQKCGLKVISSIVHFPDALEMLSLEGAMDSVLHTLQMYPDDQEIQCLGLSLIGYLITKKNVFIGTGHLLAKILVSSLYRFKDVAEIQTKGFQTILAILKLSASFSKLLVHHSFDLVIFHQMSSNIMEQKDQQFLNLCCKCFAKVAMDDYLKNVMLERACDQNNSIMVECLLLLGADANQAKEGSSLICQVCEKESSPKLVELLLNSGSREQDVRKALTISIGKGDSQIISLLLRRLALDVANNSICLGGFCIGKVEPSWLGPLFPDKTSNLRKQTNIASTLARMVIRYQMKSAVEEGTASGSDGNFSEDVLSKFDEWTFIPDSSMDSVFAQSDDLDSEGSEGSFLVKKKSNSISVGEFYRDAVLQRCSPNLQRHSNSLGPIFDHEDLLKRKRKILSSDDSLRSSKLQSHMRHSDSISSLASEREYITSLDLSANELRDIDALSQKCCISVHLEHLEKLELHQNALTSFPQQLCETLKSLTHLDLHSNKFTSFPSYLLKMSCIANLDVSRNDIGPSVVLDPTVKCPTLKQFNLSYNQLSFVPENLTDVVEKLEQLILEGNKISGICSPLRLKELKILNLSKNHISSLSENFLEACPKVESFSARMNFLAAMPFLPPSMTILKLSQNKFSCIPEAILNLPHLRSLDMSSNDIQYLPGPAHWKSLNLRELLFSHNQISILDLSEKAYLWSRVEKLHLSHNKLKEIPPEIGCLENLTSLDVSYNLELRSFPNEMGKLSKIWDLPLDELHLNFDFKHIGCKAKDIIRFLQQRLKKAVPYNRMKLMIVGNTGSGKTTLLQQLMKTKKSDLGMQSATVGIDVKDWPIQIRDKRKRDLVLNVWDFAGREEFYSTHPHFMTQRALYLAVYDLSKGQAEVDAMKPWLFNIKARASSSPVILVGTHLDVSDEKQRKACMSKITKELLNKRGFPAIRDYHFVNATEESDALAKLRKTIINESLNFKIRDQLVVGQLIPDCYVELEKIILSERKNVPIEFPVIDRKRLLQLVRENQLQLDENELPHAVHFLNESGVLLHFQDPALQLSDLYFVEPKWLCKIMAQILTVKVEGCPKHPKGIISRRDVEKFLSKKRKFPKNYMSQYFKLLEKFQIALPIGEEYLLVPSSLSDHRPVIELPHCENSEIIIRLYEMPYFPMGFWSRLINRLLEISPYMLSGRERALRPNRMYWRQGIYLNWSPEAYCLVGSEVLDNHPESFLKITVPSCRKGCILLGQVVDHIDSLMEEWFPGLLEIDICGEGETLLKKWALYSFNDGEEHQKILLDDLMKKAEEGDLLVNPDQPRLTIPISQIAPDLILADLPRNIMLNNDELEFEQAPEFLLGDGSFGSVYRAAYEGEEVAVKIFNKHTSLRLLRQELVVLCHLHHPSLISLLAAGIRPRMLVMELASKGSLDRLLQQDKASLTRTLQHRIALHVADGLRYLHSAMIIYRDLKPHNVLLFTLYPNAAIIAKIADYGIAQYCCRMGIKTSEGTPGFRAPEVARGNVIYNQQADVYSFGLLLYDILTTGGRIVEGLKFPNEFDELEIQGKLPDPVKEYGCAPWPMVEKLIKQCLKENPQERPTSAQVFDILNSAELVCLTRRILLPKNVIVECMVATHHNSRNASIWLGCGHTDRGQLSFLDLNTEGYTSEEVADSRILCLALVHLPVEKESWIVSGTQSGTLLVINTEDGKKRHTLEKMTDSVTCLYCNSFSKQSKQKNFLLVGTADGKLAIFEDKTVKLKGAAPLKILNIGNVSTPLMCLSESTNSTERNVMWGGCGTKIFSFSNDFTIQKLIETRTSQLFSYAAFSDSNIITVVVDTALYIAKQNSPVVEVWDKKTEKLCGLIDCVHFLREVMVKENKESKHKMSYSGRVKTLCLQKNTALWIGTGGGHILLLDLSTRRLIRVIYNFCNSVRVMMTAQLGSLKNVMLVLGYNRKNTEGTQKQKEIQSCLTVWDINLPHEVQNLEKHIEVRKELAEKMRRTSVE

[23] = target: Phosphatidylinositol 3-kinase C2 domain-containing subunit gamma (Homo sapiens) (UniProt O75747); conditions: Compound concentration 100.0 nM
[24] = target: High affinity nerve growth factor receptor (Homo sapiens) (UniProt P04629); conditions: Compound concentration 100.0 nM
[25] = target: 5-hydroxytryptamine receptor 2A (Homo sapiens) (UniProt P28223); conditions: Compound concentration 10.0 uM
[26] = target: Calcium-dependent protein kinase 1 (Plasmodium falciparum) (UniProt P62344); conditions: Compound concentration 100.0 nM
[27] = target: Tyrosine-protein kinase CSK (Homo sapiens) (UniProt P41240); conditions: Compound concentration 100.0 nM
[28] = target: Platelet-derived growth factor receptor beta (Homo sapiens) (UniProt P09619); conditions: Compound concentration 100.0 nM
[29] = target: Beta-2 adrenergic receptor (Homo sapiens) (UniProt P07550); conditions: Compound concentration 10.0 uM
Chain of Beta-2 adrenergic receptor (Homo sapiens) (P07550 whole entry, looked up): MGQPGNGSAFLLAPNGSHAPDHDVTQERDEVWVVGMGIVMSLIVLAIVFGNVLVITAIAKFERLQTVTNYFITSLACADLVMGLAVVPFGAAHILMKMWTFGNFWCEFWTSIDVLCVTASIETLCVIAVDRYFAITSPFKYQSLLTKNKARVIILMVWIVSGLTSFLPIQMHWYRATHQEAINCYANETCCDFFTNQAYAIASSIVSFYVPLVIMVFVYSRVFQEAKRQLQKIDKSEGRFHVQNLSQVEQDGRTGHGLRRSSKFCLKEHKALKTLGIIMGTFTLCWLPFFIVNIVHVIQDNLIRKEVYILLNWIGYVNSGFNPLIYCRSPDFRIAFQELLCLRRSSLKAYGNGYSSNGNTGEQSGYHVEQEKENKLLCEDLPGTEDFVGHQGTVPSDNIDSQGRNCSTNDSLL

[30] = system: Tyrosine-protein kinase ABL1 (Homo sapiens), P00519 [E255K]; conditions: Compound concentration 100.0 nM
[31] = target: Dual specificity protein kinase CLK2 (Homo sapiens) (UniProt P49760); conditions: Compound concentration 100.0 nM
[32] = target: Serine/threonine-protein kinase NIM1 (Homo sapiens) (UniProt Q8IY84); conditions: Compound concentration 100.0 nM
[33] = target: Mitogen-activated protein kinase kinase kinase kinase 5 (Homo sapiens) (UniProt Q9Y4K4); conditions: Compound concentration 100.0 nM
[34] = target: Receptor tyrosine-protein kinase erbB-4 (Homo sapiens) (UniProt Q15303); conditions: Compound concentration 100.0 nM
[35] = target: Bone morphogenetic protein receptor type-1A (Homo sapiens) (UniProt P36894); conditions: Compound concentration 100.0 nM
[36] = target: Serine/threonine-protein kinase PLK3 (Homo sapiens) (UniProt Q9H4B4); conditions: Compound concentration 100.0 nM
[37] = target: Focal adhesion kinase 1 (Homo sapiens) (UniProt Q05397); conditions: Compound concentration 100.0 nM
[38] = target: Myotonin-protein kinase (Homo sapiens) (UniProt Q09013); conditions: Compound concentration 100.0 nM
[39] = target: Serine/threonine-protein kinase SIK3 (Homo sapiens) (UniProt Q9Y2K2); conditions: Compound concentration 100.0 nM
[40] = target: Eukaryotic translation initiation factor 2-alpha kinase 1 (Homo sapiens) (UniProt Q9BQI3); conditions: Compound concentration 100.0 nM
[41] = target: Serine/threonine-protein kinase RIO1 (Homo sapiens) (UniProt Q9BRS2); conditions: Compound concentration 100.0 nM
Chain of Serine/threonine-protein kinase RIO1 (Homo sapiens) (Q9BRS2 whole entry): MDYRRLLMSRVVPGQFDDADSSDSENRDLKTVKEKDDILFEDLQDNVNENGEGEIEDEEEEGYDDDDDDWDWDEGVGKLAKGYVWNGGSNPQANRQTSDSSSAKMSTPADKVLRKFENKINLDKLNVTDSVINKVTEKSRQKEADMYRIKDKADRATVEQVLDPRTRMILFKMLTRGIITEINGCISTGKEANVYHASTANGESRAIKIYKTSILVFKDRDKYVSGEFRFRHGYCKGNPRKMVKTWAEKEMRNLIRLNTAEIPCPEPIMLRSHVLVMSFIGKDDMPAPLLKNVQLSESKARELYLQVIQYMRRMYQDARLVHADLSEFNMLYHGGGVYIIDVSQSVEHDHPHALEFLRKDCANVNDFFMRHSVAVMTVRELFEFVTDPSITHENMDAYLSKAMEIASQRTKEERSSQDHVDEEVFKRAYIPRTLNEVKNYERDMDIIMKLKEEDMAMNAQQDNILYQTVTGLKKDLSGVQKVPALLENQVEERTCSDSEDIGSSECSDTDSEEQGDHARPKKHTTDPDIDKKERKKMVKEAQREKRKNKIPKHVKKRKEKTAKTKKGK

[42] = target: RAC-alpha serine/threonine-protein kinase (Homo sapiens) (UniProt P31749); conditions: Compound concentration 100.0 nM
Chain of RAC-alpha serine/threonine-protein kinase (Homo sapiens) (P31749 whole entry): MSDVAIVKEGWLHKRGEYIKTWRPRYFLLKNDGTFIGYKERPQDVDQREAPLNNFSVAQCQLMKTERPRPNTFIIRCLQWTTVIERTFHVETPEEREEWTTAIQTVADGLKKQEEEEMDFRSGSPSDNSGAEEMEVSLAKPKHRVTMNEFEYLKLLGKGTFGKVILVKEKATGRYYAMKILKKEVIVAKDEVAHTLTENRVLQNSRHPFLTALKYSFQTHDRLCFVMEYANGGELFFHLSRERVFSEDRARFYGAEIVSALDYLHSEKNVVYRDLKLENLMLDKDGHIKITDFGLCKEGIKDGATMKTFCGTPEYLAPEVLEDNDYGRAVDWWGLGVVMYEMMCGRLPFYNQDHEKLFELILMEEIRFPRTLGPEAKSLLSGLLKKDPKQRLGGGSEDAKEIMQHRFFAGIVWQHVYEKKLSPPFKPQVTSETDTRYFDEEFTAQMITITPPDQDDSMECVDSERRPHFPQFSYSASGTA

[43] = target: Calcium/calmodulin-dependent protein kinase type 1G (Homo sapiens) (UniProt Q96NX5); conditions: Compound concentration 100.0 nM
[44] = target: Homeodomain-interacting protein kinase 2 (Homo sapiens) (UniProt Q9H2X6); conditions: Compound concentration 100.0 nM
[45] = target: Cyclin-dependent kinase 4 (Homo sapiens) (UniProt P11802); conditions: Compound concentration 100.0 nM

`CCOC(=O)c1cc2cc(-c3cc(C(=O)NCc4ccc(C(=O)O)cc4)nn3C)ccc2[nH]1` [BI 4394] gave a residual activity [1] of 100%, a residual activity [2] of 93% and a residual activity [3] of 100%. The residual activity [4] was 100%, the residual activity [5] was 88% and the residual activity [6] was 92%. It also gave a residual activity [7] of 100%, a residual activity [8] of 92% and a residual activity [9] of 100%. The residual activity [10] was 100%, the residual activity [11] was 100% and the residual activity [12] was 100%. The residual activity [13] was 100%, the residual activity [14] was 97% and the residual activity [15] was 95%. For the same molecule, the residual activity [16] was 100%, the residual activity [17] was 97% and the residual activity [18] was 76%. The residual activity [19] was 100%, the residual activity [20] was 98% and the residual activity [21] was 89%. For the same molecule, the residual activity [22] was 81%, the residual activity [23] was 100% and the residual activity [24] was 89%. For the same molecule, the inhibition [25] was 19.1%, the residual activity [26] was 100% and the residual activity [27] was 74%. It also gave a residual activity [28] of 86%, an inhibition [29] of -7.76% and a residual activity [30] of 88%. For the same molecule, the residual activity [31] was 96%, the residual activity [32] was 79% and the residual activity [33] was 93%. It also gave a residual activity [34] of 96%, a residual activity [35] of 87% and a residual activity [36] of 70%. The residual activity [37] was 94%, the residual activity [38] was 87% and the residual activity [39] was 100%. For the same molecule, the residual activity [40] was 91%, the residual activity [41] was 96% and the residual activity [42] was 100%. It also gave a residual activity [43] of 100%, a residual activity [44] of 82% and a residual activity [45] of 82%.

`Cn1nc(C(=O)NCc2ccc(C(=O)O)cc2)cc1-c1ccc2[nH]ccc2c1` [BI 4395] was tested, and the residual activity [1] was 100%, the residual activity [2] was 95% and the residual activity [3] was 76%. The residual activity [4] was 90%, the residual activity [5] was 73% and the residual activity [6] was 71%. The residual activity [7] was 90%, the residual activity [8] was 82% and the residual activity [9] was 100%. The residual activity [10] was 75%, the residual activity [11] was 100% and the residual activity [12] was 91%. It also gave a residual activity [13] of 90%, a residual activity [14] of 100% and a residual activity [15] of 92%. For the same molecule, the residual activity [16] was 83%, the residual activity [17] was 100% and the residual activity [18] was 100%. It also gave a residual activity [19] of 23%, a residual activity [20] of 99% and a residual activity [21] of 69%. It also gave a residual activity [22] of 75%, a residual activity [23] of 100% and a residual activity [24] of 74%. It also gave an inhibition [25] of 23.6%, a residual activity [26] of 73% and a residual activity [27] of 94%. The residual activity [28] was 96%, the inhibition [29] was 6.74% and the residual activity [30] was 65%. For the same molecule, the residual activity [31] was 100%, the residual activity [32] was 78% and the residual activity [33] was 96%. The residual activity [34] was 98%, the residual activity [35] was 94% and the residual activity [36] was 94%. It also gave a residual activity [37] of 85%, a residual activity [38] of 76% and a residual activity [39] of 94%. It also gave a residual activity [40] of 90%, a residual activity [41] of 76% and a residual activity [42] of 100%. It also gave a residual activity [43] of 89%, a residual activity [44] of 97% and a residual activity [45] of 84%.
